For experiment [1], the target named is QAPRTase (Salmonella typhimurium quinolinic acid phosphoribosyltransferase) (Salmonella enterica, UniProt P30012). Put plainly: steady-state kinetics. The settings on record: read-out: WT. Format: biochemical.
The target in experiment [2] is QAPRTase (Salmonella typhimurium quinolinic acid phosphoribosyltransferase) (Salmonella enterica, UniProt P30012, H189A). As to the kind of experiment: biochemical.
Experiment [3] has as its target QAPRTase (Salmonella typhimurium quinolinic acid phosphoribosyltransferase) (Salmonella enterica, UniProt P30012, R153A). Put plainly: biochemical.

We go through 2 compounds from article PMC2837848 (Biochemistry, 2010).

Read-outs that look alike come from different tables or passages of the source.

For the compound `O=C(O)c1cccnc1C(=O)O` [QA, quinolinic acid], the Km in experiment [1] (co-substrate PRPP) is 27 ± 6 µM.

Usually Kd stands for the free concentration of one partner at which half of the binding sites on the other are occupied at equilibrium, for simple one-to-one binding. As for `O=P(O)(O)OC[C@H]1O[C@H](OP(=O)(O)OP(=O)(O)O)[C@H](O)[C@@H]1O` [PRPP, 5-phosphoribosyl 1-pyrophosphate], the Kd is 480 ± 75 µM in experiment [2] and roughly 1000 µM in experiment [3]. In addition, the Km in experiment [1] (co-substrate QA) was 57 ± 7 µM.
